In ChEMBL document CHEMBL4420075, “Seriniquinones, melanoma-specific anticancer agents” (2016):
One block for each molecule: values may come before it. The source made the active and inactive calls. The calls are words filed in the database; no cut-off is given here.

Experiments:
Dermcidin (Homo sapiens) [1] = target: T1, Dermcidin (Homo sapiens) (UniProt P81605); assay: Binding affinity to dermcidin in human HCT116 cells at 50 uM incubated for 8 hrs by anti-IAF mAb based immunoprecipitation assay; type: cell-based
T1 sequence (whole entry): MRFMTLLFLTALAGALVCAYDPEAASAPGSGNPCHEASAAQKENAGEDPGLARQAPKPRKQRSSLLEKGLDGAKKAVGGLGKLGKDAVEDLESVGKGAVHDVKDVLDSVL

[2] = Drug accumulation in human MALME-3M cells assessed as sub-cellular localization in endoplasmic reticulum measured up to 9 hrs by ER-tracker-blue based confocal microscopy; type: ADME, subcellular
[3] = Drug accumulation in human HCT116 cells assessed as sub-cellular localization in autophagosomes measured after 6 hrs by dansyl-cadaverine based confocal microscopy; type: ADME, subcellular, Autophagosome; details: hct-116, 6 h
Homo sapiens [4] = organism: Homo sapiens; assay: Binding affinity to HSP70 in human HCT116 cells at 50 uM incubated for 8 hrs by LC-MS/MS analysis; type: cell-based
[5] = Drug accumulation in human HCT116 cells assessed as sub-cellular localization in endoplasmic reticulum measured up to 9 hrs by ER-tracker-blue based confocal microscopy; type: ADME, subcellular; details: hct-116, 9 h
Dermcidin (Homo sapiens) [6] = target: T1, Dermcidin (Homo sapiens); assay: Binding affinity to dermcidin in human HCT116 cells at 50 uM incubated for 8 hrs by LC-MS/MS analysis; type: cell-based
[7] = Drug accumulation in human MALME-3M cells assessed as sub-cellular localization in autophagosomes measured after 6 hrs by dansyl-cadaverine based confocal microscopy; type: ADME, subcellular, Autophagosome
Dermcidin (Homo sapiens) [8] = target: T1, Dermcidin (Homo sapiens); assay: Binding affinity to dermcidin in human HCT116 cell lysates at 3 to 30 uM incubated for 8 hrs by anti-IAF mAb based immunoprecipitation assay; type: subcellular; details: Lysate
Homo sapiens [9] = organism: Homo sapiens; assay: Binding affinity to actin in human HCT116 cells at 50 uM incubated for 8 hrs by LC-MS/MS analysis; type: cell-based
Dermcidin (Homo sapiens) [10] = target: T1, Dermcidin (Homo sapiens); assay: Covalent binding affinity to dermcidin in human HCT116 cell lysates at 30 uM incubated for 8 hrs by Western blot analysis; type: subcellular; details: Lysate
[11] = target: Glyceraldehyde-3-phosphate dehydrogenase (Homo sapiens) (UniProt P04406); assay: Covalent binding affinity to GADPH in human HCT116 cell lysates at 30 uM incubated for 8 hrs by Western blot analysis; type: subcellular; details: Lysate
Glyceraldehyde-3-phosphate dehydrogenase (Homo sapiens), sequence (P04406 2-335 limits assumed): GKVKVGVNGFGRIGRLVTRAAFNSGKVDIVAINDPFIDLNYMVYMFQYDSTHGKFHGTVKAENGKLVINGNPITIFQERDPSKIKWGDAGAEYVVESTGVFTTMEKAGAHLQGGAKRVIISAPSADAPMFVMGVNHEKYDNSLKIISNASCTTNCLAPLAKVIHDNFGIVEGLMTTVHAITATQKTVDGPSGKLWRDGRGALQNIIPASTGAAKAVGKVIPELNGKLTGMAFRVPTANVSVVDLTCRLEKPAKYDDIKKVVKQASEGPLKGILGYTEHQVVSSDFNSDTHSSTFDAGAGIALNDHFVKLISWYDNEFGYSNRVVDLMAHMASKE

[12] = target: Glyceraldehyde-3-phosphate dehydrogenase (Homo sapiens) (UniProt P04406); assay: Binding affinity to GADPH in human HCT116 cells at 50 uM incubated for 8 hrs by LC-MS/MS analysis; type: cell-based
HCT-116 [13] = assay: Reduction in cyclin D3 protein expression in human HCT116 cells at 3 to 30 uM incubated for 24 hrs by Western blot analysis; type: functional, cell-based
PC-3 = assay: Induction of auto-phagocytosis in human PC3 cells at 30 uM incubated for 1 hr by time course imaging assay; type: functional, cell-based
Dermcidin (Homo sapiens) [14] = target: T1, Dermcidin (Homo sapiens); assay: Covalent binding affinity to DCD-1L (unknown origin) at 50 uM incubated for 24 hrs by denatured SDS-PAGE gel electrophoresis
HCT-116 [15] = assay: Induction of apoptosis in human HCT116 cells assessed as induction of caspase-3 cleavage at 3 to 30 uM incubated for 24 hrs by Western blot analysis; type: functional, cell-based
HCT-116 [16] = assay: Reduction in cyclin D2 protein expression in human HCT116 cells at 3 to 30 uM incubated for 24 hrs by Western blot analysis; type: functional, cell-based
HCT-116 [17] = assay: Induction of DNA fragmentation in human HCT116 cells at 0.3 to 30 uM incubated for 24 hrs by FACS analysis; type: functional, cell-based
[18] = Drug accumulation in human HCT116 cells assessed as sub-cellular localization at 5 uM incubated for 1 hr by DAPI staining based; type: ADME, cell-based; details: hct-116, 1 h
HCT-116 [19] = assay: Induction of apoptosis in human HCT116 cells assessed as induction of PARP cleavage at 3 to 30 uM incubated for 24 hrs by Western blot analysis; type: functional, cell-based
HCT-116 [20] = assay: Induction of apoptosis in human HCT116 cells assessed as induction of caspase-7 cleavage at 3 to 30 uM incubated for 24 hrs by Western blot analysis; type: functional, cell-based
[21] = Drug accumulation in human SF295 cells assessed as sub-cellular localization at 30 uM incubated for 1 hr by DAPI staining based; type: ADME, cell-based; details: sf-295, 1 h
HCT-116 [22] = assay: Induction of apoptosis in human HCT116 cells assessed as induction of caspase-9 cleavage at 3 to 30 uM incubated for 24 hrs by Western blot analysis; type: functional, cell-based
HCT-116 [23] = assay: Reduction in cyclin D1 protein expression in human HCT116 cells at 3 to 30 uM incubated for 24 hrs by Western blot analysis; type: functional, cell-based
HCT-116 [24] = assay: Induction of autophagy in human HCT116 cells assessed as increase in of LC3B-II level incubated for 24 hrs by Western blot analysis; type: functional, cell-based
[25] = Drug accumulation in human PC3M cells assessed as sub-cellular localization at 30 uM incubated for 1 hr by DAPI staining based; type: ADME, cell-based; details: pc-3m
[26] = Drug accumulation in human HCT8 cells assessed as sub-cellular localization at 30 uM incubated for 1 hr by DAPI staining based; type: ADME, cell-based; details: hct-8, 1 h
HCT-116 [27] = assay: Induction of cell cycle arrest in human HCT116 cells assessed as accumulation at S phase at 0.3 to 30 uM incubated for 18 to 24 hrs by propidium iodide staining based assay; type: functional
HCT-116 [28] = assay: Induction of autophagy in human HCT116 cells assessed as increase in of LC3A-II level incubated for 24 hrs by Western blot analysis; type: functional, cell-based
[29] = Drug accumulation in human MALME-3M cells assessed as sub-cellular localization at 30 uM incubated for 1 hr by DAPI staining based; type: ADME, cell-based
[30] = Drug accumulation in human PC3 cells assessed as sub-cellular localization in endoplasmic reticulum at 30 uM incubated for 1 hr by time course imaging assay; type: ADME, subcellular; details: pc-3, 1 h
HCT-116 [31] = assay: Induction of autophagy in human HCT116 cells assessed as increase in of LC3B-II level at 17 uM incubated for 24 hrs by Western blot analysis; type: functional, cell-based
HCT-116 [32] = assay: Induction of autophagy in human HCT116 cells assessed as increase in of LC3A-II level at 17 uM incubated for 24 hrs by Western blot analysis; type: functional, cell-based

Activity (Dermcidin (Homo sapiens) [1]): Active
Drug uptake [2]: Active
Drug uptake [3]: Active
Drug uptake [5]: Active
Activity (Dermcidin (Homo sapiens) [6]): Active
Drug uptake [7]: Active
Activity (Dermcidin (Homo sapiens) [8]): Active
Activity (Dermcidin (Homo sapiens) [10]): Active
Activity [11]: Active
Activity [12]: Active
SMILES: CN(C)c1ccc2c(CC(=O)NCCCCCCNC(=O)CCc3ccc4c(=O)c5c(sc6c(=O)c7ccccc7c(=O)c65)c(=O)c4c3)cc(=O)oc2c1
Activity (Homo sapiens [4]): Active
Activity (Homo sapiens [9]): Active

Drug uptake [2]: Active
Drug uptake [3]: Active
Activity (Dermcidin (Homo sapiens) [14]): Active
Drug uptake [5]: Active
Drug uptake [18]: Active
Drug uptake [21]: Active
Drug uptake [25]: Active
Drug uptake [7]: Active
Drug uptake [26]: Active
Drug uptake [29]: Active
Drug uptake [30]: Active
SMILES: O=c1c2ccccc2c(=O)c2c1sc1c(=O)c3ccccc3c(=O)c12
Activity (HCT-116 [13]): Active
Activity (PC-3): Active
Activity (HCT-116 [15]): Active
Activity (HCT-116 [16]): Active
Activity (HCT-116 [17]): Dose-dependent effect
Activity (HCT-116 [19]): Active
Activity (HCT-116 [20]): Active
Activity (HCT-116 [22]): Active
Activity (HCT-116 [23]): Active
Activity (HCT-116 [24]): Dose-dependent effect
Activity (HCT-116 [27]): Dose-dependent effect
Activity (HCT-116 [28]): Dose-dependent effect

SMILES: COc1cc([C@@H]2c3cc4c(cc3[C@@H](O[C@@H]3O[C@@H]5CO[C@@H](C)O[C@H]5[C@H](O)[C@H]3O)[C@H]3COC(=O)[C@H]23)OCO4)cc(OC)c1O
Activity (HCT-116 [31]): Active
Activity (HCT-116 [32]): Active
